According to PMC3714282, “Pharmacometabolomics of Response to Sertraline and to Placebo in Major Depressive Disorder – Possible Role for Methoxyindole Pathway” (PLoS ONE, 2013):

System: serum metabolites (tryptophan, tyrosine, purine pathways, antioxidants)
Assay: LCECA metabolomic profiling of serum: change from baseline at week 1 and week 4 (all, responders, non-responders)
Assay type: in vivo, human
Conditions: serum; for Change 5-HT / Change 5-HTP / Change 5-MTPOL / Change 7-MXAN / Change ATOCO / Change CYS / Change DIOHMAL / Change DOPAC / Change DTOCO / Change GR / Change GRMP / Change GSH / Change HGA / Change HVA / Change HX / Change KYN / Change LD / Change MEL / Change METH / Change MHPG / Change NA-5-HT / Change TRP / Change TRPOL / Change TYR / Change UA / Change VMA / Change XAN / Change XANTH / Change 3-OHKY / Change 3-OMD / Change 4-HBAC / Change 4-HPAC / Change 4-HPLA / Change 5-HIAA: log-transformed concentration; for Change in ratio 3-OHKY/5-HT, Estimate / Change in ratio 3-OHKY/5-HTP, Estimate / Change in ratio 3-OHKY/5-MTPOL, Estimate / Change in ratio 3-OHKY/MEL, Estimate / Change in ratio 3-OHKY/NA-5-HT, Estimate / Change in ratio 3-OHKY/TRP, Estimate / Change in ratio KYN/5-HT, Estimate / Change in ratio KYN/5-HTP, Estimate / Change in ratio KYN/5-MTPOL, Estimate / Change in ratio KYN/MEL, Estimate / Change in ratio KYN/NA-5-HT, Estimate / Change in ratio KYN/TRP, Estimate: pre- to post-treatment (four weeks)
Text: Study participants were outpatients, 18–65 years of age, from various clinical sites across the United States. […] A complete description of the inclusion and exclusion used in this study can be found in Table S1. The study protocol was developed in accordance with the principles of the Declaration of Helsinki. All patients provided written informed consent. The study was sponsored and monitored by Pfizer, Inc. Each site's institutional review board approved and oversaw the study. The primary outcome measure was the HAMD17, used to assess depressive symptom severity. Measures were gathered at baseline, and weeks 1 and 4 of treatment at the patient's visits. Serum samples were collected using standard protocol at baseline, week 1 and week 4 of treatment at the clinic visits. Whole blood was collected in serum collection tubes and inverted 5–8 times. Serum samples were allowed to clot at room temperature for 60 minutes and then centrifuged at 1,300×g for 15 minutes. Following centrifugation supernatant was frozen at −80°C until analysis.
Samples were analyzed using a liquid chromatography electrochemical array (LCECA) platform that has been extensively validated and used in our prior studies in neurodegenerative and psychiatric disorders [30]–[34]. The method includes multiple compounds from the tyrosine, tryptophan, sulfur amino acids and purine pathways, and markers of oxidative stress and protection (for the list of metabolites and abbreviations see Table 1). Levels of 5-Methoxytryptamine (5-MTPM) were measured using a gas chromatography time-of-flight-mass spectrometry (GCTOF-MS) platform. Samples were prepared for analysis as previously described. During the sample preparation, pools were created from equal volumes of subaliquots of all samples. Concentrations of metabolites in the individual samples were expressed as a percentage of the concentration of those metabolites in the averaged pool.
Data preprocessing: We first removed the metabolites that have more than 40% missing values. […] Principal components analysis (PCA; SIMCA-P+12.0) was used to identify outliers. The analysis was performed for each time point. […] Subjects with ≥3 standard deviations away from the center of data cloud within two principal components (PC's) scores scatter plot were considered outliers and were removed from further analysis.
These analyses were conducted separately for the sertraline and placebo groups. Between groups t-tests were used to compare baseline to one week and baseline to four week change scores between the sertraline and placebo groups.
Signatures of response to sertraline and placebo were identified by using paired t-tests to compare week 4 metabolite levels to baseline metabolite levels in the responders and non-responders to therapy. […] These analyses were also performed to evaluate changes in ratios of individual metabolites within (e.g., 5-HT/5-HTP) and between branches of tryptophan pathway (e.g., KYN/MEL).

[1] = after four weeks, sertraline group
[2] = after one week, responders to sertraline
[3] = after one week, sertraline group

CN[C@H]1CC[C@@H](c2ccc(Cl)c(Cl)c2)c2ccccc21 [Sertraline, sertraline]
Change 5-HT [1]: −1.9
Change 5-HTP [1]: 0.12
Change 5-MTPOL [1]: 0.13
Change 7-MXAN [1]: 0.083
Change ATOCO [1]: 0.63
Change CYS [1]: −0.0014
Change DIOHMAL [1]: 0.37
Change DOPAC [1]: −0.014
Change DTOCO [1]: 0.71
Change GR [1]: 0.0002
Change GRMP [1]: 0.052
Change GSH [1]: 0.014
Change HGA [1]: 0.4
Change HVA [1]: 0.1
Change HX [1]: −0.0057
Change KYN [1]: 0.045
Change LD [1]: 0.12
Change MEL [1]: 0.49
Change METH [1]: 0.2
Change MHPG [1]: −0.21
Change NA-5-HT [1]: 0.041
Change TRP [1]: 0.07
Change TRPOL [1]: 0.061
Change TYR [1]: 0.13
Change UA [1]: −0.058
Change VMA [1]: −0.015
Change XAN [1]: −0.16
Change XANTH [1]: 0.047
Change 3-OHKY [2]: -0.02
Change 3-OMD [2]: -0.18
Change 4-HBAC [2]: 0.49
Change 4-HPAC [2]: 0.47
Change 4-HPLA [2]: 0.18
Change 5-HIAA [2]: -0.14
Change 5-HT [2]: -0.79
Change 5-HTP [2]: -0.06
Change 5-MTPOL [2]: 0.15
Change 7-MXAN [2]: -0.51
Change ATOCO [2]: 0.4
Change CYS [2]: 0.0024
Change DIOHMAL [2]: 0.2
Change DOPAC [2]: -0.048
Change DTOCO [2]: 0.75
Change GR [2]: 0.17
Change GRMP [2]: -0.0083
Change GSH [2]: -0.02
Change HGA [2]: 0.19
Change HVA [2]: 0.13
Change HX [2]: -0.075
Change KYN [2]: 0.052
Change LD [2]: 0.13
Change MEL [2]: 0.41
Change METH [2]: 0.0032
Change MHPG [2]: -0.33
Change NA-5-HT [2]: -0.022
Change TRP [2]: 0.044
Change TRPOL [2]: 0.082
Change TYR [2]: -0.027
Change UA [2]: -0.048
Change VMA [2]: 0.1
Change XAN [2]: -0.21
Change XANTH [2]: 0.033
Change 3-OHKY [3]: −0.074
Change 3-OMD [3]: −0.12
Change 4-HBAC [3]: −0.085
Change 4-HPAC [3]: 0.29
Change 4-HPLA [3]: 0.1
Change 5-HIAA [3]: −0.17
Change 5-HT [3]: −0.75
Change 5-HTP [3]: −0.11
Change 5-MTPOL [3]: 0.041
Change 7-MXAN [3]: −0.099
Change ATOCO [3]: 0.21
Change CYS [3]: −0.034
Change DIOHMAL [3]: 0.18
Change DOPAC [3]: −0.13
Change DTOCO [3]: 0.3
Change GR [3]: −0.23
Change GRMP [3]: −0.011
Change GSH [3]: −0.013
Change HGA [3]: 0.28
Change HVA [3]: 0.053
Change HX [3]: −0.07
Change KYN [3]: −0.045
Change LD [3]: 0.081
Change MEL [3]: 0.34
Change METH [3]: 0.097
Change MHPG [3]: −0.17
Change NA-5-HT [3]: 0.0079
Change TRP [3]: 0.0036
Change TRPOL [3]: 0.033
Change TYR [3]: 0.083
Change UA [3]: −0.077
Change VMA [3]: 0.11
Change XAN [3]: −0.19
Change XANTH [3]: 0.082
Change in ratio 3-OHKY/5-HT, Estimate (Nonresponder to sertraline): 0.69
Change in ratio 3-OHKY/5-HTP, Estimate (Nonresponder to sertraline): −0.099
Change in ratio 3-OHKY/5-MTPOL, Estimate (Nonresponder to sertraline): −0.035
Change in ratio 3-OHKY/MEL, Estimate (Nonresponder to sertraline): −0.11
Change in ratio 3-OHKY/NA-5-HT, Estimate (Nonresponder to sertraline): 0.0038
Change in ratio 3-OHKY/TRP, Estimate (Nonresponder to sertraline): −0.04
Change in ratio KYN/5-HT, Estimate (Nonresponder to sertraline): 0.72
Change in ratio KYN/5-HTP, Estimate (Nonresponder to sertraline): −0.076
Change in ratio KYN/5-MTPOL, Estimate (Nonresponder to sertraline): −0.012
Change in ratio KYN/MEL, Estimate (Nonresponder to sertraline): −0.085
Change in ratio KYN/NA-5-HT, Estimate (Nonresponder to sertraline): 0.027
Change in ratio KYN/TRP, Estimate (Nonresponder to sertraline): −0.017
Change in ratio 3-OHKY/5-HT, Estimate (Responder to sertraline): 0.97
Change in ratio 3-OHKY/5-HTP, Estimate (Responder to sertraline): 0.025
Change in ratio 3-OHKY/5-MTPOL, Estimate (Responder to sertraline): −0.043
Change in ratio 3-OHKY/MEL, Estimate (Responder to sertraline): −0.27
Change in ratio 3-OHKY/NA-5-HT, Estimate (Responder to sertraline): −0.00032
Change in ratio 3-OHKY/TRP, Estimate (Responder to sertraline): 0.013
Change in ratio KYN/5-HT, Estimate (Responder to sertraline): 0.95
Change in ratio KYN/5-HTP, Estimate (Responder to sertraline): 0.0057
Change in ratio KYN/5-MTPOL, Estimate (Responder to sertraline): −0.062
Change in ratio KYN/MEL, Estimate (Responder to sertraline): −0.28
Change in ratio KYN/NA-5-HT, Estimate (Responder to sertraline): −0.019
Change in ratio KYN/TRP, Estimate (Responder to sertraline): −0.006
